Laboratory results taken from patent US10080747B2, “Nicotinic attenuation of CNS inflammation and autoimmunity” (priority 2008, dated 2018).
Read-outs that look alike come from different tables or passages of the source.

How the values were obtained:
spinal cord of EAE mice = details: day 25 p.i., vs PBS
Method: Mice were anesthetized with pentobarbital and perfused by intracardiac puncture with 50 ml of cold PBS. Spinal cords were removed and fixed in 10% formalin/PBS. Paraffin-embedded longitudinal sections were prepared and stained for hematoxylin and eosin (H&E), luxol fast blue (LFB, myelin staining) and Biechowsky silver (axon staining). The percentages of spinal cord inflammation, demyelination and axonal damage per mouse were calculated by first determining the total white matter area for all spinal cord sections by manually tracing the regions. Next, the areas of spinal cord inflammation, demyelination and axonal damage were determined by manually tracing each section. Pathological changes in each spinal cord were scored as follows: 0 no changes; 1 focal area involvement; 2 <5% of total myelin area involved; 3 5-10% of total myelin area involved; 4 10-20% involved area; 5 >20% of total myelin area involved (Bai, X. F., et al., J Exp Med 200:447-458).

[1] = test system: MOG35-55-specific T cells; details: splenocytes day 11 p.i.
Source text: Isotype-matched negative monoclonal antibodies were used as controls.

Th cells = test system: Th cells
Method: Single cell suspensions (4×10^7 cells) were prepared and incubated at 37° C. for 3 days in round-bottom plates (2×10^6 cells/well) with or without antigens (MOG 10 μg/ml, PLP 10 µg/ml or Con A 2.5 μg/ml), and stimulated with PMA (20 ng/ml)/ionomycin (1 μg/ml)/brefeldin A (5 μg/ml) for another 5 h at 37° C. After harvesting, cells were stained for surface markers with fluorochrome-conjugated monoclonal antibodies including anti-CD3-PE/Cy5 (17A2), anti-CD4-APC/Cy7 (GK1.5), and anti-CD8α-PE/Cy7 (53-6.7) (BD Bioscience). Isotype-matched negative monoclonal antibodies were used as controls. For intracellular cytokine staining, after fixation and permeabilization with Cytofix/Cytoperm kit (BD Bioscience), anti-IFN-γ, anti-IL-4, anti-IL-10 and anti-IL-17 monoclonal antibody conjugated with Alexa 647 were used. All samples were analyzed on a FACSAria using Diva. To determine the percentage of cells producing cytokine, the value obtained with the isotype control was subtracted from that with specific antibody. For cytokine induction, supernatants were collected 3 days after in vitro boosting. IFN-γ, IL-10, IL-2 and TGF-β were measured by optEIA kits (PharMingen and eBioscience).

MOG-specific antibodies = test system: MOG-specific antibodies
Method: MOG-reactive antibodies were quantified by enzyme-linked immunoabsorbent assay (ELISA). Briefly, microtiter plates (Corning Glass Works, Corning, N.Y., USA) were coated with 100 μl/well of murine MOG35-55 (10 μg/ml) at 4° C. overnight. After blocking with 10% fetal bovine serum, serum samples (day 11, peak stage after immunization) were added and incubated at 4° C. overnight. Plates were then incubated for 2 h with biotinylated rabbit anti-mouse IgG, IgG1, IgG2a, IgA, IgG3 and IgG2b (Invitrogen, Carlsbad, Calif., USA), followed by alkaline phosphatase-conjugated ABC reagent (Dakopatts; R&D systems, Minneapolis, Minn., USA). The color was developed with p-nitrophenyl-phosphate. Results were expressed as optical density (OD) at […].

CNS mononuclear cells = details: day 11 p.i.
Method: For CNS cell isolates, at day 11 after EAE induction (peak stage), mice were sacrificed and perfused with PBS through the left heart ventricle to eliminate contaminating blood cells in the CNS. The CNS mononuclear cells were then isolated from five to six mice using Percoll gradients and stained for cell surface markers. Antibodies were directly labeled and analyzed as done for splenocytes. The absolute number of a particular cell subset was calculated by counting the total number of mononuclear cells isolated from the CNS of individual mice and multiplying by the percentage of those cells acquired by FACSAria flow cytometry (Bai, X. F., et al., J Exp Med 200:447-458).

acute EAE in B6 mice = details: for mean clinical score, remaining mild motor deficit after recovery: PBS 2.75±0.25; for mean maximal clinical score: scale 0 to 5, PBS 4.25±0.80
[2] = test system: adoptively transferred EAE in B6 mice; details: recipients of T cells from nicotine-treated donors
spleen mononuclear cells [3] = details: day 11 p.i.
spleen mononuclear cells [4] = details: annexin V and PI double staining, at the current dose (13 mg/kg/d)
Method: Cell viability was assessed by trypan blue dye exclusion. […] Single cell suspensions were washed in PBS and resuspended in binding buffer containing annexin V-FITC and propidium iodide (PI) (both from BD Biosciences) for 20 min at room temperature. The samples were analyzed on a FACSAria using Diva.

[5] = supernatants of splenocytes cultured with MOG35-55, vs controls
[6] = serum day 11 after immunization, vs control mice
[7] = nicotine pre-treated group (day −7)

CN1CCCC1c1cccnc1 (centres unmarked) [nicotine]
axonal damage, Biechowsky silver (spinal cord of EAE mice): scarcely affected
demyelination, LFB staining (spinal cord of EAE mice): myelin sheets were largely preserved
spinal cord inflammation (cellular infiltration), H&E (spinal cord of EAE mice): few infiltrating cells
T cell proliferation in response to MOG, 3H incorporation ([1]; p<0.05 vs PBS): far fewer T cells
proliferation of CD3+, CD4+ and CD8+ T cells in response to MOG, CFSE assay ([1]; vs PBS): reduced proliferation
production of TGF-β1 (Th cells; supernatants of splenocytes cultured with MOG35-55, p<0.01): significantly augmented
production of IL-10 (Th cells; supernatants of splenocytes cultured with MOG35-55, p<0.05): significantly augmented
IFN-γ production (Th cells; [5]): significant decrease
production of IL-2 (Th cells; [5]): decreased
MOG-specific IgG2b production (MOG-specific antibodies; mouse, in vivo): profoundly impaired
MOG-specific IgA synthesis (MOG-specific antibodies; [6]): markedly increased
MOG-specific IgG1 synthesis (MOG-specific antibodies; [6]): markedly increased
CD11b+ (macrophage/microglia) and CD11c+ (dendritic) cells in the CNS (CNS mononuclear cells; vs PBS): lower percentages and absolute numbers
expression of MHC class II, CD80 and CD86 on CNS CD11c and CD11b cells (CNS mononuclear cells; vs PBS): reduced
numbers of T cells (CD3+, CD4+, CD8+) and B cells (CD3−CD19+) in the CNS (CNS mononuclear cells; vs PBS-treated EAE mice): drastically reduced
onset of EAE (acute EAE in B6 mice; nicotine 13 mg/kg/d for 7 days by minipump, prior to or on the day of disease induction, PBS controls 7.6±0.53 days): ≥ 10 day p.i.
day by which the majority of animals recovered (acute EAE in B6 mice; [7]): ≤ 21 days
mean clinical score, remaining mild motor deficit after recovery (acute EAE in B6 mice; [7]): 0.83±0.26
day by which the majority of animals recovered (acute EAE in B6 mice; nicotine-treated group (day 0)): ≤ 24 days
mean clinical score, remaining mild motor deficit after recovery (acute EAE in B6 mice; nicotine-treated group (day 0)): 0.85±0.25
mean maximal clinical score (acute EAE in B6 mice; pre-treatment starting day −7, 13 mg/kg/d x 7): 3.17±0.78
mean maximal clinical score (acute EAE in B6 mice; treatment starting day 0 after immunization, 13 mg/kg/d x 7): 3.13±0.25
severity of EAE compared with PBS (acute EAE in B6 mice; treatment starting day 7 p.i. when EAE signs began, 13 mg/kg/d x 7): significantly milder EAE
mean clinical score at the termination of experiments (acute EAE in B6 mice; treatment starting day 7 p.i., 13 mg/kg/d x 7): 0.69±0.43
mean clinical score [2]: 1.0±0.15
maximal clinical score ([2]; control 5.0±0.25): 2.5±0.82
percentages and numbers of CD3+, CD4+ and CD8+ T cells and CD19+CD3− B cells among splenocytes (spleen mononuclear cells [3]; nicotine from day 0, vs control EAE mice, p<0.05): various degrees of reductions
expression of Foxp3 (spleen mononuclear cells [3]; spleen, vs PBS): clearly augmented
NK cells, NKT cells and CD4+CD25+ regulatory T cells in spleen (spleen mononuclear cells [3]; vs PBS): did not differ significantly
expression of MHC class II, CD80 and CD86 on peripheral CD11c+ and CD11b+ cells (spleen mononuclear cells [3]; vs PBS): reductions in the expression of MHC class II, CD80 and CD86 were notable
numbers and percentages of CD11c+ and CD11b+ cells in spleen (spleen mononuclear cells [3]; vs PBS): not dramatically altered
T cell apoptosis and death (spleen mononuclear cells [4]): did not induce T cell apoptosis
